Data on one compound can be found in article PMC9698773, “Design, Synthesis, Molecular Modeling, and Anticancer Evaluation of New VEGFR-2 Inhibitors Based on the Indolin-2-One Scaffold” (Pharmaceuticals, 2022).

The test system of the series is HepG2 cell line. Kind of series: MTT cytotoxicity assay, HepG2. Particulars: for IC50: mean ± SD of three experiments. The class given is cell-based, human. How it is done: The cytotoxic activities against breast MCF-7 and liver HepG2 cancer cell lines for all the synthesized compounds 3a,b–17a,b were evaluated by MTT-based cytotoxicity assay. Sunitinib was selected as a reference standard in this study, and the results are presented as IC50 in Table 1.
The anticancer activities of the target compounds 3a,b–17a,b were quantitatively assessed using the MTT protocol against the MCF-7 and HepG2 cell lines, as described in the Supplementary Materials. […]
4.2. Biological investigation
4.2.1. In vitro cytotoxic activity assay
Citation: Abdelgawad, M.A.; Cell Line cells were obtained from the American Type Culture Collection. The cells Hayallah A.M.; Bukhari S.N.A.; were cultured using DMEM (Invitrogen/Life Technologies) supplemented with 10% FBS Musa A.; Elmowafy M.; (Hyclone,), 10 ug/ml of insulin (Sigma), and 1% penicillin‐streptomycin. All of the other Abdel‐Rahman, H.M.; chemicals and reagents were from Sigma or Invitrogen. Plate cells (cells density 1.2 – 1.8 Abd El‐Gaber, M.K. Design, × 10,000 cells/well) in a volume of 100μl complete growth medium + 100 μl of the tested Synthesis, Molecular Modeling, and compound per well in a 96‐well plate for 24 hours before the MTT assay. The tested com‐ Anticancer Evaluation of New pounds were dissolved in DMSO just before the test.
VEGFR‐2 Inhibitors Based on the Indolin‐2‐One Scaffold. 4.2.1.1. Cell culture protocol
Pharmaceuticals 2022, 15, x. The culture medium was removed to a centrifuge tube. The cell layer was briefly https://doi.org/10.3390/xxxxx rinsed with 5 mL of 0.25% (w/v) Trypsin and 3 mL of 0.53 mM EDTA solution to remove Academic Editor(s): Mary J. Meegan all traces of serum which contains Trypsin inhibitor. Next, 2.0 to 3.0 ml of Trypsin EDTA Received: 18 October 2022 solution was added to the flask and cells were observed under an inverted microscope Accepted: 9 November 2022 until the cell layer was dispersed (usually within 5 to 15 minutes). Then, 6.0 to 8.0 mL of Published: 14 November 2022 complete growth medium was added and cells aspirated by gently pipetting. The cell suspension was transferred to the centrifuge tube with the medium and cells from step 1, Publisher’s Note: MDPI stays neu‐and centrifuged at approximately 125 xg for 5 to 10 minutes. The supernatant was dis‐ tral with regard to jurisdictional carded and the cell pellet was suspended in fresh growth medium. Appropriate aliquots claims in published maps and institu‐ of the cell suspension were added to new culture vessels and incubated at 37°C for 24 hrs. tional affiliations. After treatment of cells with the serial concentrations of the compound to be tested, incu‐ bation was carried out for 48 h at 37 °C. The plates were examined under an inverted mi‐ croscope and proceeded for the MTT assay […]
Submitted for possible open access 4.2.1.2. […]
HepG‐2) were used in this test. At first, the cell lines were cultured in RPMI‐1640 medium Pharmaceuticals 2022, 15, x. https://doi.org/10.3390/xxxxx. www.mdpi.com/journal/pharmaceuticals […]
Pharmaceuticals 2022, 15, x FOR PEER REVIEW 2 of 22 with 10% fetal bovine serum. Antibiotics (100 units/ml penicillin and100 μg/ml strepto‐ mycin) were added at 37 °C in a 5% CO2 incubator. The cell lines were seeded in a 96‐well plate at a density of 1.0 x 10^4 cells / well at 37 °C for 48 h under 5% CO2. After incubation, the cells were treated with different concentrations of the synthesized compounds and incubated for 24 h. After 24 h of drug treatment, 20 μl of MTT solution (5mg/ml) was added and incubated for 4 h. 100 μl of dimethyl sulfoxide (DMSO) was added into each well to dissolve the formed purple formazan. The colored solution was measured and recorded at an absorbance of 570 nm using a plate reader (EXL 800, USA). The relative cell viability was calculated in percentage as (A570 of treated samples/A570 of untreated sam‐ ple) X 100. The half maximal inhibitory concentration (IC50) values were presented using […]

In general, IC50 refers to the point on the concentration scale where inhibition reaches its midpoint.

Regarding `O=C1Nc2ccccc2C1=Nc1ccc(C(=O)NNC(=S)Nc2ccccc2)cc1` [Compound 17a, 2-(4-((2-Oxoindolin-3-ylidene)amino)benzoyl)-N-phenylhydrazinecarbothioamide], the half-maximal inhibitory concentration (IC50) reads like this: (Homo sapiens, HepG2, MTT assay) 1130 ± 60 nM; (MTT assay) 1130 ± 60 nM. The “fold more potent than sunitinib, HepG2” value (ratio of IC50 to sunitinib) is listed as “two-fold”.
